Measured values reported in PMC11079024, “Identification of a family of species-selective complex I inhibitors as potential anthelmintics” (Nature Communications, 2024).
Read-outs that look alike come from different tables or passages of the source.

Assays:
[1] = test system: ben-1 mutant (ECA882) C. elegans; test: microbe, parasite or virus in culture; details: Caenorhabditis elegans
How it was run: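 L1 larvae (~2 worms/μL in M9) in liquid NGM with 2-fold concentrated E. coli HB101, compound at 1% DMSO, 6 days at 20 °C shaking 165 rpm. Well images scored as summed worm-associated pixels, normalized to DMSO controls; relative viability averaged over at least three biological replicates.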

in vitro = details: human; for CC50 at 2 days: HEK293 Cell Viability Assay LC50, HEK293 cells, estimated from fitted dose-response curves; for viability at 2 days, 3.13 µM / viability at 2 days, 6.25 µM / viability at 2 days, 12.5 µM / viability at 2 days, 25 µM / viability at 2 days, 50 µM / viability at 2 days, 100 µM: HEK293 cells (Flp-In-293), HEK293 viability
L1 wild-type C. elegans = details: for Screen "Hit": 50 μM
[2] = molecular target: B. taurus (heart) complex I (Bos taurus, UniProt P03887+P17694+P42026); test: biochemical; assay type: biochemical; details: for IC50: B. taurus heart mitochondria, read-out: B. taurus Complex I IC50; for activity at 0.0001 µM / activity at 0.0005 µM / activity at 0.001 µM / activity at 0.0025 µM / activity at 0.005 µM / activity at 0.013 µM / activity at 0.025 µM / activity at 0.063 µM / activity at 0.125 µM / activity at 0.313 µM / activity at 0.625 µM / activity at 1.5 µM / activity at 3 µM / activity at 15 µM / activity at 37.5 µM / activity at 75 µM: read-out: B. taurus mitochondrial complex I activity; for Log IC50 B. taurus complex I: log10 of IC50 in µM, B. taurus mitochondria
Sequence of B. taurus (heart) complex I (P03887 whole entry): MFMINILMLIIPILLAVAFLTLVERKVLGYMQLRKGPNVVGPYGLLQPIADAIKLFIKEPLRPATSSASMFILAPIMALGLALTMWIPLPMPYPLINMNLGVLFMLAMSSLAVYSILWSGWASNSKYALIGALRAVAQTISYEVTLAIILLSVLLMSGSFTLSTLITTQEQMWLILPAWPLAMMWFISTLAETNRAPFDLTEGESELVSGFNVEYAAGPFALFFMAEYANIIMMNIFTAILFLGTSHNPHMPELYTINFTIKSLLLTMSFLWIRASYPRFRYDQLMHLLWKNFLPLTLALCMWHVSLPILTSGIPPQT
Sequence of B. taurus (heart) complex I (P17694 34-463): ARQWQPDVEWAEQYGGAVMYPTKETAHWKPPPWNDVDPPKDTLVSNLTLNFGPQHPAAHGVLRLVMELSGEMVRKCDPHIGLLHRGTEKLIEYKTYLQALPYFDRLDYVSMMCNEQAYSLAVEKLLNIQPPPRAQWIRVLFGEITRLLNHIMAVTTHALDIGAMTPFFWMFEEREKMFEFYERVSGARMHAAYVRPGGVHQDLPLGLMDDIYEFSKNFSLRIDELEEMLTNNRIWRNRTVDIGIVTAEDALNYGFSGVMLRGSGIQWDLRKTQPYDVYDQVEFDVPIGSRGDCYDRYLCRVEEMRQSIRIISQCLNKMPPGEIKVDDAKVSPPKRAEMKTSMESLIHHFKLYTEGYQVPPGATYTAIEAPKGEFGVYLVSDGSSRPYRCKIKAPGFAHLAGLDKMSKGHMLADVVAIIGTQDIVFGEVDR
Sequence of B. taurus (heart) complex I (P42026 38-216): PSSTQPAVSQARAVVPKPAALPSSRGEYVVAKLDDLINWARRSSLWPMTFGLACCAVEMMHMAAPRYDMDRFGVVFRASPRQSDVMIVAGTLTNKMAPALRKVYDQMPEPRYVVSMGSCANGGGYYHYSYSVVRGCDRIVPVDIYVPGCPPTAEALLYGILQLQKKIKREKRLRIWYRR
How it was run: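 Complex I activity followed as DCIP reduction (600 nm, 30 s reads, 15 min) with 80 μM NADH and 60 μM decylubiquinone in 25 mM KPi pH 7.5 containing 2 μM antimycin A and 2 mM KCN. Freeze-thawed mouse or bovine heart mitochondria at 0.2 mg/mL; initial-rate percent of solvent control, single-point 100 μM or dose-response.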

[3] = read-out: C. elegans (ben-1) Development & Viability Assay LC50
[4] = read-out: C. elegans ben-1(e1880) development/viability
[5] = read-out: C. elegans ben-1 log10 LC50 (converted)
[6] = mean of at least two biological replicates
[7] = KCN survival assay, hit = relative motility below 0.25
[8] = Dose 0.2 µM, mean of at least three biological replicates
[9] = estimated from fitted dose-response curves

Nc1nc2ccccc2n1Cc1ccc(Cl)cc1 [Compound 5652765]
LC50 [1, 3]: 71.7 µM
viability at 1 µM [1, 4]: 98%
viability at 2 µM [1, 4]: 94.6%
viability at 3.9 µM [1, 4]: 92.8%
viability at 15.6 µM [1, 4]: 89.9%
viability at 31.3 µM [1, 4]: 76.1%
viability at 62.5 µM [1, 4]: 63.7%
viability at 125 µM [1, 4]: 13.8%
viability at 250 µM [1, 4]: 7.4%
viability at 500 µM [1, 4]: 6.3%
LC50 [1, 5]: 71.6 µM
CC50 at 2 days (in vitro; [6]): 58.9 µM
viability at 2 days, 3.13 µM (in vitro): 94.2%
viability at 2 days, 6.25 µM (in vitro): 94%
viability at 2 days, 12.5 µM (in vitro): 92.9%
viability at 2 days, 25 µM (in vitro): 94.5%
viability at 2 days, 50 µM (in vitro): 62.3%
viability at 2 days, 100 µM (in vitro): 10%
Screen "Hit" (L1 wild-type C. elegans; [7]): Y (hits were identified as compounds that reduced relative motility below 0.25 (75% reduction))
C. elegans KCN Survival (L1 wild-type C. elegans; [8]): 0.973
C. elegans KCN Survival (L1 wild-type C. elegans; Dose 0.39 µM): 1.034
C. elegans KCN Survival (L1 wild-type C. elegans; Dose 1.56 µM): 1.067
C. elegans KCN Survival (L1 wild-type C. elegans; Dose 3.13 µM): 1.051
C. elegans KCN Survival (L1 wild-type C. elegans; Dose 6.25 µM): 1.001
C. elegans KCN Survival (L1 wild-type C. elegans; Dose 12.5 µM): 0.758
C. elegans KCN Survival (L1 wild-type C. elegans; Dose 25 µM): 0.271
C. elegans KCN Survival (L1 wild-type C. elegans; Dose 50 µM): 0.140
C. elegans KCN Survival (L1 wild-type C. elegans; Dose 100 µM): 0.216
IC50 [2, 9]: 2.27 µM
activity at 0.0001 µM [2]: 93.5%
activity at 0.0005 µM [2]: 96.1%
activity at 0.001 µM [2]: 91%
activity at 0.0025 µM [2]: 95.6%
activity at 0.005 µM [2]: 88.8%
activity at 0.013 µM [2]: 88.3%
activity at 0.025 µM [2]: 83.3%
activity at 0.063 µM [2]: 87.9%
activity at 0.125 µM [2]: 79.5%
activity at 0.313 µM [2]: 76.3%
activity at 0.625 µM [2]: 72.5%
activity at 1.5 µM [2]: 54.3%
activity at 3 µM [2]: 36.4%
activity at 15 µM [2]: 4.61%
activity at 37.5 µM [2]: 0.42%
activity at 75 µM [2]: 0.3%
Log IC50 B. taurus complex I [2]: 0.36 µM

Cc1nc2ccccc2n1Cc1ccc(Cl)c(Cl)c1 [Compound 5655567]
LC50 [1, 3]: 85.3 µM
viability at 1 µM [1, 4]: 99.9%
viability at 2 µM [1, 4]: 97.1%
viability at 3.9 µM [1, 4]: 100%
viability at 15.6 µM [1, 4]: 100%
viability at 31.3 µM [1, 4]: 99.5%
viability at 62.5 µM [1, 4]: 84.2%
viability at 125 µM [1, 4]: 10.6%
viability at 250 µM [1, 4]: 16.7%
LC50 [1, 5]: 85.3 µM
CC50 at 2 days (in vitro; [6]): 64.5 µM
viability at 2 days, 3.13 µM (in vitro): 100%
viability at 2 days, 6.25 µM (in vitro): 100%
viability at 2 days, 12.5 µM (in vitro): 100%
viability at 2 days, 25 µM (in vitro): 88.9%
viability at 2 days, 50 µM (in vitro): 72.1%
viability at 2 days, 100 µM (in vitro): 15.5%
Screen "Hit" (L1 wild-type C. elegans; [7]): Y (hits were identified as compounds that reduced relative motility below 0.25 (75% reduction))
C. elegans KCN Survival (L1 wild-type C. elegans; [8]): 0.934
C. elegans KCN Survival (L1 wild-type C. elegans; Dose 0.39 µM): 0.972
C. elegans KCN Survival (L1 wild-type C. elegans; Dose 1.56 µM): 0.973
C. elegans KCN Survival (L1 wild-type C. elegans; Dose 3.13 µM): 0.953
C. elegans KCN Survival (L1 wild-type C. elegans; Dose 6.25 µM): 0.756
C. elegans KCN Survival (L1 wild-type C. elegans; Dose 12.5 µM): 0.219
C. elegans KCN Survival (L1 wild-type C. elegans; Dose 25 µM): 0.111
C. elegans KCN Survival (L1 wild-type C. elegans; Dose 50 µM): 0.120
C. elegans KCN Survival (L1 wild-type C. elegans; Dose 100 µM): 0.176
IC50 [2, 9]: 1.17 µM
activity at 0.0001 µM [2]: 91.2%
activity at 0.0005 µM [2]: 90.2%
activity at 0.001 µM [2]: 95.5%
activity at 0.0025 µM [2]: 94.9%
activity at 0.005 µM [2]: 95.5%
activity at 0.013 µM [2]: 85.5%
activity at 0.025 µM [2]: 82.4%
activity at 0.063 µM [2]: 79.8%
activity at 0.125 µM [2]: 78.8%
activity at 0.313 µM [2]: 62.7%
activity at 0.625 µM [2]: 60.2%
activity at 1.5 µM [2]: 41.5%
activity at 3 µM [2]: 23.2%
activity at 15 µM [2]: 1.19%
activity at 37.5 µM [2]: 0.14%
activity at 75 µM [2]: 0.62%
Log IC50 B. taurus complex I [2]: 0.07 µM

Cc1ccc(OCCn2cnc3ccccc32)cc1 [Compound 5671538]
LC50 [1, 3]: > 1000 µM
viability at 15.6 µM [1, 4]: 100%
viability at 31.3 µM [1, 4]: 100%
viability at 62.5 µM [1, 4]: 100%
viability at 125 µM [1, 4]: 100%
viability at 250 µM [1, 4]: 100%
viability at 500 µM [1, 4]: 100%
viability at 1000 µM [1, 4]: 100%
LC50 ([1]; read-out: C. elegans ben-1 LC50): > 500 µM
LC50 [1, 5]: > 500 µM
CC50 at 2 days (in vitro): > 100 µM
viability at 2 days, 3.13 µM (in vitro): 92.2%
viability at 2 days, 6.25 µM (in vitro): 98.5%
viability at 2 days, 12.5 µM (in vitro): 97.1%
viability at 2 days, 25 µM (in vitro): 96.2%
viability at 2 days, 50 µM (in vitro): 96.4%
viability at 2 days, 100 µM (in vitro): 61.4%
Screen "Hit" (L1 wild-type C. elegans; hit = relative motility below 0.25 3 hours after removal of KCN): Y (hits were identified as compounds that reduced relative motility below 0.25 (75% reduction))
C. elegans KCN Survival (L1 wild-type C. elegans; [8]): 0.927
C. elegans KCN Survival (L1 wild-type C. elegans; Dose 0.39 µM): 0.931
C. elegans KCN Survival (L1 wild-type C. elegans; Dose 1.56 µM): 0.891
C. elegans KCN Survival (L1 wild-type C. elegans; Dose 3.13 µM): 0.844
C. elegans KCN Survival (L1 wild-type C. elegans; Dose 6.25 µM): 0.828
C. elegans KCN Survival (L1 wild-type C. elegans; Dose 12.5 µM): 0.784
C. elegans KCN Survival (L1 wild-type C. elegans; Dose 25 µM): 0.550
C. elegans KCN Survival (L1 wild-type C. elegans; Dose 50 µM): 0.033
C. elegans KCN Survival (L1 wild-type C. elegans; Dose 100 µM): 0.00256
IC50 [2]: 17.4 µM
activity at 0.0001 µM [2]: 94.3%
activity at 0.0005 µM [2]: 97.5%
activity at 0.001 µM [2]: 95.2%
activity at 0.0025 µM [2]: 100%
activity at 0.005 µM [2]: 98.6%
activity at 0.013 µM [2]: 95.8%
activity at 0.025 µM [2]: 97.5%
activity at 0.063 µM [2]: 95%
activity at 0.125 µM [2]: 89.3%
activity at 0.313 µM [2]: 91.3%
activity at 0.625 µM [2]: 85.9%
activity at 1.5 µM [2]: 84.9%
activity at 3 µM [2]: 86.7%
activity at 15 µM [2]: 57.1%
activity at 37.5 µM [2]: 33.8%
activity at 75 µM [2]: 14.5%
Log IC50 B. taurus complex I [2]: 1.24 µM
